Laboratory results from patent US20250339531A1, “DUX4 POLYPEPTIDES AND NUCLEIC ACIDS FOR TREATING INFLAMMATORY AND AUTOIMMUNE CONDITIONS” (Fred Hutchinson Cancer Center, priority 2021, published 2025).
“Also recorded” adds a separate entry of the source.

What was measured:
[1] = molecular target: T1, STAT1 (Homo sapiens, UniProt P42224); assay: Immunofluorescence of STAT1 distribution; assay type: cell-based; details: MB135 cells, IFNG ± doxycycline
T1 construct: co-localization of endogenous STAT1 and pSTAT1 701 with the iDUX4-CTD; endogenous in cells; host or cells: MB135 human myoblasts carrying doxycycline-inducible DUX4 / DUX4-CTD / DUXB / Dux transgenes, with or without IFNG
T1 sequence (P42224 1-750): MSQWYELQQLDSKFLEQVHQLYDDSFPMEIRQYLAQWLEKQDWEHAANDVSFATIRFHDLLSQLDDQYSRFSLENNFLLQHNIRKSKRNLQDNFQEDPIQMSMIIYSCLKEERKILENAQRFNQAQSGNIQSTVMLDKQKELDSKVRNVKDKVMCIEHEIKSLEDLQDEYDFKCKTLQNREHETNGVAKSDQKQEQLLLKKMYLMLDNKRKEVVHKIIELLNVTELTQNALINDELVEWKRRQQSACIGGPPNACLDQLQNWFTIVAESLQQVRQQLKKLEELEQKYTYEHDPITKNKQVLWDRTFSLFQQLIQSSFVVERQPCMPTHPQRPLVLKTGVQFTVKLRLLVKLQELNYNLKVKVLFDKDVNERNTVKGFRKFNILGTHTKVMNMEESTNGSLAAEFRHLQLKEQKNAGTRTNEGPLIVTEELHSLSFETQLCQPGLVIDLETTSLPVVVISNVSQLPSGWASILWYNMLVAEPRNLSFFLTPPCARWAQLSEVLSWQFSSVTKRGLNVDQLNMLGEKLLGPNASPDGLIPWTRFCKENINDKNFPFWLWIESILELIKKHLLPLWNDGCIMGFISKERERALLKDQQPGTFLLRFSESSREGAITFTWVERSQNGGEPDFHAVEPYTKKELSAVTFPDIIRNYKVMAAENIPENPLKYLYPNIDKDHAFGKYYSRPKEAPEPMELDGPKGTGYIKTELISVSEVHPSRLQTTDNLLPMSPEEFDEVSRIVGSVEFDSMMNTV
Experimental: Cells were fixed for 10 minutes with 2% paraformaldehyde (Thermo Scientific) for DUX4/STAT1 and 4% paraformaldehyde for DUX4/IDO1 then permeabilized for 10 minutes with 0.5% Triton X-100 (Sigma), both at room temperature with gentle shaking. Cells were then blocked for 2 hours with PBS/0.3M glycine/3% BSA at room temperature with gentle shaking. Primary antibodies were incubated at 4° C. overnight: mouse anti-FLAG M2 1:500 (Sigma #F1804), rabbit anti-STAT1 mAb 1:750 (Abcam #ab109320), rabbit anti-IDO1 (D5J4E) 1:100 (Cell Signaling Tech 86630S), and mouse anti-DUX4 (P2G4) 1:250 (Geng et al., 2011). Cells were washed three times with 1×PBS containing 3% BSA, then secondary antibodies were incubated for 1 hr at room temperature: FITC-conjugated donkey anti-rabbit (Jackson immunoResearch) or TRITC-conjugated donkey anti-mouse (Jackson ImmunoResearch). Cells were washed once with 1×PBS containing 3% BSA then stained with DAPI (Sigma) for 10′ at room temperature and then visualized.

[2] = tested on: de novo protein synthesis; assay: [35S]-methionine/cysteine metabolic labeling of nascent protein synthesis; assay type: cell-based; details: human myoblasts, 20-92 h after 4 h doxycycline pulse
Experimental: Cells were treated with and without a 4-hour pulse of doxycycline. Eight hours prior to harvest, cells were incubated in DMEM depleted for methionine and cysteine (Gibco) supplemented with 90 microcurie 35S-methionine/cysteine (Perkin Elmer) and 50 ng/ml […] (R&D Systems). Protein samples were harvested in RIPA buffer [150 mM NaCl, 1% NP-40, 0.5% Na-deocycholate, 1% SDS, 25 mM Tris-HCl pH7.4] supplemented with protease and phosphatase inhibitor tablets (Pierce), followed by sonication in Diagenode Bioruptor. Lysate was cleared by centrifugation at 16000×g and quantified using a Pierce BCA assay (Thermo Scientific). Samples were run on NuPAGE precast polyacrylamide gels (Invitrogen). Gels were stained with InstantBlue Coomassie (Abcam) following manufacturer protocol, placed on whatman paper, wrapped in plastic wrap, and dried. Gels were exposed to phosphor screen, imaged on Typhoon Trio imager, and analyzed with ImageQuant.

[3] = tested on: MHC class I proteins (HLA-A/B/C); assay: Immunoblot of IFNG-induced MHC class I protein, continuous or pulsed protocol, MB135 myoblasts; assay type: cell-based, human; details: 4 h doxycycline pulse, IFNG 28, 52 or 76 h later
[4] = tested on: H3.X/Y; assay: Immunoblot of DUX4 target H3.X/Y proteins; assay type: cell-based, human; details: MB135 cells, continuous or pulsed protocol
Experimental: Protein samples were harvested in RIPA buffer [150 mM NaCl, 1% NP-40, 0.5% Na-deocycholate, 1% SDS, 25 mM Tris-HCl pH7.4] supplemented with protease and phosphatase inhibitor tablets (Pierce), followed by sonication in Diagenode Bioruptor. Lysate was cleared by centrifugation at 16000×g and quantified using a Pierce BCA assay (Thermo Fisher Scientific). Samples were run on NuPAGE precast polyacrylamide gels (Invitrogen) and transferred to PVDF membrane. Membranes were blocked in PBS containing 0.1% Tween-20 and 5% non-fat dry milk before overnight incubation at 4° C. with primary antibodies (see resource table for a list of antibodies used in this study). Membranes were incubated with horseradish peroxidase-conjugated secondary antibodies for 1 hour at room temperature and SuperSignal chemiluminescent substrate (Thermo Scientific) was used for detection on film with a Mini-medical 90 processor. Membranes were stripped with Restore Western Blot Stripping Buffer (Pierce).

DUX4: human DUX4 protein SEQ ID NO:3 expressed from doxycycline inducible codon altered transgene SEQ ID NO:2
STAT1 nuclear distribution [1]: no longer evenly distributed in the nucleus and shows overall decreased abundance | nascent protein synthesis by 35S labeling [2]: global de novo protein synthesis was transiently reduced | nascent protein synthesis by 35S labeling ([2]; listed as wildtype DUX4): a reduction in labeled nascent proteins several days following a pulse | duration of MHC class I protein suppression after a pulse [3]: at Least Four Days; also recorded: becomes more pronounced between 24 and 72 hours after a pulse of DUX4; also recorded: for nearly four days; also recorded: suppressed MHC class I even four days later; also recorded: persists days after a DUX4 pulse | induction of DUX4 target H3.X/Y proteins [4]: activates a DUX4-regulated gene H3.X/Y in both protocols | induction of DUX4 target H3.X/Y proteins ([4]; listed as full-length DUX4): are induced by the full-length DUX4
